# Target: human GluN1/GluN2B NMDA receptors (Homo sapiens, UniProt Q05586+Q13224)
# Assay: Cell-based calcium flux (FLIPR) assay on cloned human GluN1/GluN2B ion channels expressed in mammalian cells
# Details: standard assay; glutamate ~EC40, 10 μM glycine; stable Tet-On cell line
# Protocol: 5.3. Biological Assays: Effect of Compounds of Formula (I) on Cloned Human GluN1/GluN2B Ion Channels Expressed in Mammalian Cells
# NMDA receptors are ion channels that are highly permeable to Ca^2+ ions, rendering it possible to monitor NMDA receptor function using cell-based calcium flux assay. In this assay, co-agonists glutamate and glycine are added to cells heterologously expressing human GluN1/GluN2B NMDA receptors to initiate cellular Ca^2+ influx. The time course of the changes in intracellular calcium is measured using a fluorescent dye and a FLIPR (Fluorometric Imaging Plate Reader) device.
# Twenty four hours before measurements, the expression of the NMDA receptors in the stable cell line is induced with Tet-On inducible system in the presence of a non-selective NMDA receptor blocker. On the day of the experiment, cell culture media is carefully washed and the cells are loaded with Calcium 5 Dye Kit (Molecular Devices) in dye loading buffer containing 137 mM NaCl, 4 mM KCl, 2 mM CaCl2, 0.5 mM MgCl2 (standard assay) or 1.5 mM MgCl2 (HTS assay), 10 mM HEPES and 5 mM D-glucose; pH 7.4. After 1 h incubation at the room temperature, the dye is washed away with the assay buffer (137 mM NaCl (standard assay) or 150 mM (HTS assay), 4 mM KCl (standard assay) or 3 mM (HTS assay), 2 mM CaCl2, 0.01 mM EDTA, 10 mM HEPES and 5 mM D-glucose; pH 7.4) In the FLIPR TETRA reader, various concentrations of the test compounds are added to the cells for 5 min while fluorescence is monitored to detect potential agonist activity. Next, co-agonists, glutamate and glycine are added for another 5 minutes. The concentration of glutamate corresponding to ˜EC40 (standard assay) or EC40 (HTS assay) is used to maximize the assay's signal window and ability to detect NMDA receptor antagonists and negative allosteric modulators. A saturating concentration (10 μM) of glycine is also present in the assay. A non-selective NMDA receptor antagonist, (+)MK-801 is used as a positive control for antagonist activity. The fluorescent signal in the presence of test compounds is quantified and normalized to the signal defined by the appropriate control wells.
# Sequence of human GluN1/GluN2B NMDA receptors (Q13224 27-1484, other chains not shown): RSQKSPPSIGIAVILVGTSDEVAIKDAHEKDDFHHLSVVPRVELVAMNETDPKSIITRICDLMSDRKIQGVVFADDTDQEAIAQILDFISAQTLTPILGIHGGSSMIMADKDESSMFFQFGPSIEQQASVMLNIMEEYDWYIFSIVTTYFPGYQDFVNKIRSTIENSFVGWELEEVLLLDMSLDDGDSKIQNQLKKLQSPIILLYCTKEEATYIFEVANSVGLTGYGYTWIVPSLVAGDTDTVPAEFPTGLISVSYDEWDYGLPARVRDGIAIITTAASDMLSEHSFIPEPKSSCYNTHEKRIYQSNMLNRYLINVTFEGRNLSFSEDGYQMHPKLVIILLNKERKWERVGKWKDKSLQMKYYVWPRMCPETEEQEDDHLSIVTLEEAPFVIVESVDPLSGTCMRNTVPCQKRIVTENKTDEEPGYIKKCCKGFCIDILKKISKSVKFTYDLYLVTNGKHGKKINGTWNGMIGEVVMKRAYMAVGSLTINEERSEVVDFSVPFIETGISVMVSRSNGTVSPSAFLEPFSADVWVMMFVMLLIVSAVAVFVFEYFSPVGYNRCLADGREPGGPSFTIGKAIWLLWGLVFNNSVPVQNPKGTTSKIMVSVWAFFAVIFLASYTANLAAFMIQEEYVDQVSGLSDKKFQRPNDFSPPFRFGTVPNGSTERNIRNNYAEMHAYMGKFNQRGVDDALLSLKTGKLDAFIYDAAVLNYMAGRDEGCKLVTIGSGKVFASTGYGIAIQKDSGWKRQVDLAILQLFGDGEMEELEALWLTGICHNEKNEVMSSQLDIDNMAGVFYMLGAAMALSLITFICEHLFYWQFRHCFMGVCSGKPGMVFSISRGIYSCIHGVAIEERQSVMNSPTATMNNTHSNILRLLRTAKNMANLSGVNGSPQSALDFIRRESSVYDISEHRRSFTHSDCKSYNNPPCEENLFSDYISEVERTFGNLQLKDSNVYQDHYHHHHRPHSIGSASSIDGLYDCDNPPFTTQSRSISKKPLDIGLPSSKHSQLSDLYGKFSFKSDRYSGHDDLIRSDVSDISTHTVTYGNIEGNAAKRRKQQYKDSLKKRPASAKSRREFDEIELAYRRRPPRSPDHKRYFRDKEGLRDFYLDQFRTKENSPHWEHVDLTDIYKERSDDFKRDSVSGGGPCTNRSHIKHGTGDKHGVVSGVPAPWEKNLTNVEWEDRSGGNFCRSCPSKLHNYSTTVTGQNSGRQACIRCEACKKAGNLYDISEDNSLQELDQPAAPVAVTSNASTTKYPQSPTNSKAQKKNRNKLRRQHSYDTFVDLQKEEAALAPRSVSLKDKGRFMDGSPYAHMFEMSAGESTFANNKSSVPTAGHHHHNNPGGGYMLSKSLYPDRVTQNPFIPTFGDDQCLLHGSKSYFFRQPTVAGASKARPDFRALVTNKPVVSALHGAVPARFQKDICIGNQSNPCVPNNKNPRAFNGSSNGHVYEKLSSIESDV
row,Structure (SMILES),IC50 [nM]
1,"CC(C)C1CN(Cc2cncc(-c3ccc(F)c(OC(F)F)c3)c2)C(=O)O1 (racemic) [Example 14, (R/S)-3-[[5-[3-(Difluoromethoxy)-4-fluoro-phenyl]-3-pyridyl]methyl]-5-isopropyl-oxazolidin-2-one]",97
2,"CC1COC(=O)N1Cc1cncc(-c2ccc(F)c(C(F)F)c2)c1 (racemic) [Example 25, (R/S)-3-[[5-[3-(Difluoromethyl)-4-fluoro-phenyl]-3-pyridyl]methyl]-4-methyl-oxazolidin-2-one]",31
3,"CC1CN(Cc2cncc(-c3ccc(F)c(C(F)F)c3)c2)C(=O)O1 (racemic) [Example 26, (R/S)-3-[[5-[3-(Difluoromethyl)-4-fluoro-phenyl]-3-pyridyl]methyl]-5-methyl-oxazolidin-2-one]",28
4,"CC(C)C1CN(Cc2cncc(-c3ccc(F)c(C(F)F)c3)c2)C(=O)O1 (racemic) [Example 35, (R/S)-3-[[5-[3-(Difluoromethyl)-4-fluoro-phenyl]-3-pyridyl]methyl]-5-isopropyl-oxazolidin-2-one]",29
5,"CC(c1cncc(-c2ccc(F)c(C(F)F)c2)c1)N1CCCOC1=O (racemic) [Example 61, (R/S)-3-[1-[5-[3-(difluoromethyl)-4-fluoro-phenyl]-3-pyridyl]ethyl]-1,3-oxazinan-2-one]",323
6,"Cc1ncc(-c2ccc(F)c(OC(F)F)c2)cc1CN1CC(C)OC1=O (racemic) [Example 80, (R/S)-3-[[5-[3-(Difluoromethoxy)-4-fluoro-phenyl]-2-methyl-3-pyridyl]methyl]-5-methyl-oxazolidin-2-one]",22
7,"Cc1ncc(-c2ccc(F)c(OC(F)F)c2)cc1CN1C(=O)OCC1C (racemic) [Example 81, (R/S)-3-[[5-[3-(Difluoromethoxy)-4-fluoro-phenyl]-2-methyl-3-pyridyl]methyl]-4-methyl-oxazolidin-2-one]",79
8,"Cc1ncc(-c2ccc(F)c(C(F)F)c2)cc1CN1C(=O)OCC1C (racemic) [Example 95, (R/S)-3-[[5-[3-(difluoromethyl)-4-fluoro-phenyl]-2-methyl-3-pyridyl]methyl]-4-methyl-oxazolidin-2-one]",113
9,"CC(C)C1CN(Cc2cncc(-c3ccc(F)c(OC(F)F)c3)c2)C(=O)O1 (single isomer, unassigned) [Example 15, (R*)-3-[[5-[3-(Difluoromethoxy)-4-fluoro-phenyl]-3-pyridyl]methyl]-5-isopropyl-oxazolidin-2-one]",45
10,"CC(C)C1CN(Cc2cncc(-c3ccc(F)c(OC(F)F)c3)c2)C(=O)O1 (single isomer, unassigned) [Example 16, (S*)-3-[[5-[3-(Difluoromethoxy)-4-fluoro-phenyl]-3-pyridyl]methyl]-5-isopropyl-oxazolidin-2-one]",52
11,"O=C1OC(CN2CCOCC2)CN1Cc1cncc(-c2ccc(F)c(OC(F)F)c2)c1 (single isomer, unassigned) [Example 18, (R*)-3-[[5-[3-(Difluoromethoxy)-4-fluoro-phenyl]-3-pyridyl]methyl]-5-(morpholinomethyl)oxazolidin-2-one]",751
12,"O=C1OC(CN2CCOCC2)CN1Cc1cncc(-c2ccc(F)c(OC(F)F)c2)c1 (single isomer, unassigned) [Example 19, (S*)-3-[[5-[3-(Difluoromethoxy)-4-fluoro-phenyl]-3-pyridyl]methyl]-5-(morpholinomethyl)oxazolidin-2-one]",1350
13,"CC(C)C1CN(Cc2cncc(-c3ccc(F)c(C(F)F)c3)c2)C(=O)O1 (single isomer, unassigned) [Example 36, (R*)-3-[[5-[3-(Difluoromethyl)-4-fluoro-phenyl]-3-pyridyl]methyl]-5-isopropyl-oxazolidin-2-one]",31
14,"CC(C)C1CN(Cc2cncc(-c3ccc(F)c(C(F)F)c3)c2)C(=O)O1 (single isomer, unassigned) [Example 37, (S*)-3-[[5-[3-(Difluoromethyl)-4-fluoro-phenyl]-3-pyridyl]methyl]-5-isopropyl-oxazolidin-2-one]",50
15,"O=C1OC(CN2CCOCC2)CN1Cc1cncc(-c2ccc(F)c(C(F)F)c2)c1 (single isomer, unassigned) [Example 40, (R*)-3-[[5-[3-(Difluoromethyl)-4-fluoro-phenyl]-3-pyridyl]methyl]-5-(morpholinomethyl)oxazolidin-2-one]",205
16,"O=C1OC(CN2CCOCC2)CN1Cc1cncc(-c2ccc(F)c(C(F)F)c2)c1 (single isomer, unassigned) [Example 41, (S*)-3-[[5-[3-(Difluoromethyl)-4-fluoro-phenyl]-3-pyridyl]methyl]-5-(morpholinomethyl)oxazolidin-2-one]",751
17,"Cc1ncc(-c2ccc(F)c(OC(F)F)c2)cc1CN1C(=O)OCC1C (single isomer, unassigned) [Example 82, (R*)-3-[[5-[3-(Difluoromethoxy)-4-fluoro-phenyl]-2-methyl-3-pyridyl]methyl]-4-methyl-oxazolidin-2-one]",66
18,"Cc1ncc(-c2ccc(F)c(OC(F)F)c2)cc1CN1C(=O)OCC1C (single isomer, unassigned) [Example 83, (S*)-3-[[5-[3-(Difluoromethoxy)-4-fluoro-phenyl]-2-methyl-3-pyridyl]methyl]-4-methyl-oxazolidin-2-one]",30
19,"CC(C)[C@H]1COC(=O)N1Cc1cncc(-c2ccc(F)c(OC(F)F)c2)c1 [Example 3, (4S)-3-[[5-[3-(Difluoromethoxy)-4-fluoro-phenyl]-3-pyridyl]methyl]-4-isopropyl-oxazolidin-2-one]",3010
20,"O=C1OCc2ccccc2N1Cc1cncc(-c2ccc(F)c(OC(F)F)c2)c1 [Example 4, 1-[[5-[3-(Difluoromethoxy)-4-fluoro-phenyl]-3-pyridyl]methyl]-4H-3,1-benzoxazin-2-one]",123
21,"CC1(C)CCN(Cc2cncc(-c3ccc(F)c(OC(F)F)c3)c2)C(=O)O1 [Example 10, 3-[[5-[3-(Difluoromethoxy)-4-fluoro-phenyl]-3-pyridyl]methyl]-6,6-dimethyl-1,3-oxazinan-2-one]",521

# Stronger by IC50, values ahead:
row,IC50 [nM],Structure (SMILES)
1,21,"Cc1ncc(-c2ccc(F)c(C(F)F)c2)cc1CN1CC(C)OC1=O (racemic) [Example 94, (R/S)-3-[[5-[3-(Difluoromethyl)-4-fluoro-phenyl]-2-methyl-3-pyridyl]methyl]-5-methyl-oxazolidin-2-one]"
2,20,"CC1COC(=O)N1Cc1cncc(-c2ccc(F)c(OC(F)F)c2)c1 (racemic) [Example 5, (R/S)-3-[[5-[3-(Difluoromethoxy)-4-fluoro-phenyl]-3-pyridyl]methyl]-4-methyl-oxazolidin-2-one]"
3,20,"Cc1ncc(-c2ccc(F)c(OC(F)F)c2)cc1CN1CC(C)OC1=O (stereo in doubt) [Example 86, (5R)-3-[[5-[3-(Difluoromethoxy)-4-fluoro-phenyl]-2-methyl-3-pyridyl]methyl]-5-methyl-oxazolidin-2-one]"
4,17,"CC1CN(Cc2cncc(-c3ccc(F)c(OC(F)F)c3)c2)C(=O)O1 (single isomer, unassigned) [Example 7, (S*)-3-[[5-[3-(Difluoromethoxy)-4-fluoro-phenyl]-3-pyridyl]methyl]-5-methyl-oxazolidin-2-one]"
5,15,"CC1CN(Cc2cncc(-c3ccc(F)c(OC(F)F)c3)c2)C(=O)O1 (racemic) [Example 6, (R/S)-3-[[5-[3-(Difluoromethoxy)-4-fluoro-phenyl]-3-pyridyl]methyl]-5-methyl-oxazolidin-2-one]"
6,14,"C[C@@H]1CN(Cc2cncc(-c3ccc(F)c(C(F)F)c3)c2)C(=O)O1 (single isomer, unassigned) [Example 28, (R*)-3-[[5-[3-(Difluoromethyl)-4-fluoro-phenyl]-3-pyridyl]methyl]-5-methyl-oxazolidin-2-one]"
7,12,"O=C1OCCN1Cc1cncc(-c2ccc(F)c(OC(F)F)c2)c1 [Example 2, 3-[[5-[3-(Difluoromethoxy)-4-fluoro-phenyl]-3-pyridyl]methyl]oxazolidin-2-one]"
8,12,"O=C1OC2(CC2)CN1Cc1cncc(-c2ccc(F)c(OC(F)F)c2)c1 [Example 9, 5-[[5-[3-(Difluoromethoxy)-4-fluoro-phenyl]-3-pyridyl]methyl]-7-oxa-5-azaspiro[2.4]heptan-6-one]"
9,11,"CC1CN(Cc2cncc(-c3ccc(F)c(OC(F)F)c3)c2)C(=O)O1 (single isomer, unassigned) [Example 8, (R*)-3-[[5-[3-(Difluoromethoxy)-4-fluoro-phenyl]-3-pyridyl]methyl]-5-methyl-oxazolidin-2-one]"

# Source: patent US11447503B2, “Pyridine carbamates and their use as GLUN2B receptor modulators” (JANSSEN PHARMACEUTICA NV, priority 2019, dated 2022)
